Measurements taken from patent publication US4668672A, “Feed compositions containing pyridylalkylhydrazides” (SmithKline Beckman Corporation, priority 1985, dated 1987).
Where “and” joins values, the source holds several entries; their conditions need not be identical. Equal entries are not always repeated. Where two headings read alike, the source gives them in different places.

How the values were obtained:
[1] = test system: swine ileal or cecal inoculum (filtrate of cannula material); assay: In vitro swine procedure (incubation of inoculum from cannulated swine, in vitro fistula procedure); parameters: species or system swine (Yorksire barrow)
Chick growth study = format: in vivo, broiler chicks; conditions: for response vs control in vivo at 40 ppm / response vs control in vivo at 50 ppm / response vs control in vivo at 49 ppm / response vs control in vivo at 10 ppm: Gallus gallus, feed or water, 408 h; for response vs control in vivo at 40 ppm: 40 ppm in feed; for response vs control in vivo at 50 ppm: 50 ppm in feed; for response vs control in vivo at 49 ppm: 49 ppm in feed; for response vs control in vivo at 10 ppm: 10 ppm in feed; for feed conversion / weight gain: chickens
Experimental: 512 Day old broiler chicks, selected for weight, health and sex, are housed in an environmentally controlled room with temperature at 37.7° and humidity at 40%. Chicks are fed ad libitum. Water is offered ad libitum. A corn or, preferably, rye basal ration is fed during the acclimation period (days 1 and 2), then, mixed with the compound under test or used as a control on days 3-17. Either 8 or 16 chicks are used for each test or control group.

[2] = 1.67 ppm, 5 hours at 37°, blank control = 100%
[3] = 16.67 ppm, 5 hours at 37°, blank control = 100%
[4] = 166.67 ppm, 5 hours at 37°, blank control = 100%
[5] = days 3-17, read-out: Feed Gain (3-17 day)
[6] = days 3-17, read-out: Weight (17 day)
[7] = 116.67 ppm, 5 hours at 37°, blank control = 100%
[8] = 50.0 (unit not given) in feed, days 3-17

COC(=O)NN=C(C)c1ccccn1 [drawing 3]
LYS (lysine) [1, 2]: 70 % of Control Values | LYS (lysine) [1, 3]: 134 % of Control Values | VFA (total of volatile fatty acids) [1, 3]: 94 % of Control Values | LYS (lysine) [1, 4]: 99 % of Control Values | VFA (total of volatile fatty acids) [1, 4]: 88 % of Control Values

COC(=O)NN=Cc1ccncc1
response vs control in vivo at 40 ppm (Chick growth study; [5]): 102% | response vs control in vivo at 40 ppm (Chick growth study; [6]): 96.9%

COC(=O)NN=C(C)c1ccccn1 [drawing 13]
response vs control in vivo at 50 ppm (Chick growth study; [5]): 94% | response vs control in vivo at 50 ppm (Chick growth study; [6]): 110%

CC(=NNC(=S)N1CC2CCC(CC2)C1)c1ccccn1 [drawing 15]
response vs control in vivo at 49 ppm (Chick growth study; [5]): 84.1% | response vs control in vivo at 49 ppm (Chick growth study; [6]): 102%

CC(=NNC(=S)N1CCCCC1)c1ccccn1 [drawing 2]
LYS (lysine) [1, 4]: 23 % of Control Values and 18 % of Control Values | VFA (total of volatile fatty acids) [1, 4]: 63 % of Control Values

CC(=NNC(=S)N1CCCCCC1)c1ccccn1 [Compound 10]
response vs control in vivo at 10 ppm (Chick growth study; [5]): 92.3% | response vs control in vivo at 10 ppm (Chick growth study; [6]): 110% | response vs control in vivo at 50 ppm (Chick growth study; [5]): 80.6% | response vs control in vivo at 50 ppm (Chick growth study; [6]): 103%

CC(=NNC(N)=S)c1ccccn1 [drawing 5]
GLU (glucose) [1, 4]: 147 % of Control Values | LAC (L lactic acid) [1, 4]: 88 % of Control Values | LYS (lysine) [1, 4]: 137 % of Control Values | VFA (total of volatile fatty acids) [1, 4]: 43 % of Control Values

CSC(=S)NN=C(C)c1ccccn1 [drawing 16]
response vs control in vivo at 40 ppm (Chick growth study; [5]): 86.6% | response vs control in vivo at 40 ppm (Chick growth study; [6]): 72.8%

COC(=O)NN=Cc1cccnc1
response vs control in vivo at 50 ppm (Chick growth study; [5]): 102% | response vs control in vivo at 50 ppm (Chick growth study; [6]): 98.4%

CC(=NNC(=S)N1CCCCC1)c1ccccn1 [drawing 9]
response vs control in vivo at 10 ppm (Chick growth study; [5]): 92.3% | response vs control in vivo at 10 ppm (Chick growth study; [6]): 110% | response vs control in vivo at 50 ppm (Chick growth study; [5]): 80.6% | response vs control in vivo at 50 ppm (Chick growth study; [6]): 103%

3-azabicyclo[3.2.2]nonane-3-carbothioic acid 2-[1-(2-pyridyl)ethyl]hydrazide
feed conversion (Chick growth study; fed at 50 ppm): better feed conversion | weight gain (Chick growth study; fed at 50 ppm): increased weight gain

CC(=NNC(=S)N1CCCCCC1)c1ccccn1 [hexahydro-1H-azepine-1-carbothioic acid [1-(2-pyridinyl)-ethylidinyl]hydrazide]
feed conversion (Chick growth study; fed at 10 and 50 ppm): better feed conversion | weight gain (Chick growth study; fed at 10 and 50 ppm): increased weight gain

CC(=NNC(N)=S)c1ccccn1 [drawing 14]
response vs control in vivo at 50 ppm (Chick growth study; [5]): 91.2% | response vs control in vivo at 50 ppm (Chick growth study; [6]): 107%

COC(=O)NN=Cc1ccccn1 [drawing 4]
LYS (lysine) [1, 2]: 65 % of Control Values | VFA (total of volatile fatty acids) [1, 2]: 90 % of Control Values | LYS (lysine) [1, 3]: 140 % of Control Values | VFA (total of volatile fatty acids) [1, 3]: 104 % of Control Values | LYS (lysine) [1, 4]: 109 % of Control Values | VFA (total of volatile fatty acids) [1, 4]: 109 % of Control Values

COC(=O)NN=Cc1ccccn1 [drawing 12]
response vs control in vivo at 50 ppm (Chick growth study; [5]): 86.4% | response vs control in vivo at 50 ppm (Chick growth study; [6]): 119%

Virginiamycin [reference compound]
GLU (glucose) [1]: 190 % of Control Values | LAC (L lactic acid) [1, 7]: 17 % of Control Values | LYS (lysine) [1, 7]: 171 % of Control Values | VFA (total of volatile fatty acids) [1, 7]: 25 % of Control Values | Feed Gain (3-17 day) (Chick growth study; [8]): 85.0 % of Control | Weight (17 day) (Chick growth study; [8]): 118.9 % of Control

CC(=NNC(=S)N1CC2CCC(CC2)C1)c1ccccn1 [drawing 6]
VFA (total of volatile fatty acids) [1]: 97 % of Control Values | LYS (lysine) [1, 4]: 107 % of Control Values

CSC(=S)NN=C(C)c1ccccn1 [drawing 7]
GLU (glucose) [1, 4]: 95 % of Control Values | LAC (L lactic acid) [1, 4]: 113 % of Control Values | LYS (lysine) [1, 4]: 103 % of Control Values | VFA (total of volatile fatty acids) [1, 4]: 89 % of Control Values

CC(=NNC(=S)N1CC2CCC(CC2)C1)c1ccccn1 [drawing 8]
response vs control in vivo at 50 ppm (Chick growth study; [5]): 80.6% | response vs control in vivo at 50 ppm (Chick growth study; [6]): 103%
